Source: publication PMC10872342, “9S1R nullomer peptide induces mitochondrial pathology, metabolic suppression, and enhanced immune cell infiltration, in triple-negative breast cancer mouse model” (Biomedicine & pharmacotherapy = Biomedecine & …, 2023)
“Also recorded” adds a separate entry of the source. Ends that are not written are not given here.

Key:
[1] = tested on: 4T1.2 cells; experiment: LC-MS detection of peptide internalization within cells; assay type: cell-based, mouse; conditions: 50uM, 2h, PBS wash, lysis, 3KDa filter, 3+ and 4+ forms
Experimental: Supplementary Fig 1: Detection of peptide internalization and stability within cells. (A) LC-MS Graph showing peak of peptide only spike at 1mg/ml final concentration (positive control) (B) Sample-1: 2 × 10^5 4T1.2 cells lysate was filtered through a 3KDa cut-off Amicon protein filters (Millipore) to get rid of proteins larger than 3KDa, followed by LC-MS detection (negative control). (C) Sample-2: 2 × 10^5 4T1.2 cells lysate (50ul) was mixed with the peptide at 1mg/ml final concentration and incubated for 30 mins followed by filtering through 3 KDa cut-off filter and LC-MS detection. (D) Sample-3: 50 ul of filtered cell lysate or Sample-1 was mixed with the peptide at 1mg/ml final concentration and incubated for 30 mins followed by LC-MS detection. (E) Sample-4: Cells were treated with 50uM of peptide and incubated for 2h followed by washing in PBS, lysis, passing through 3KDa protein filter, and detection by LC-MS. […] (G) Enlarged peaks from- C, Sample-2 with (H) extracted ion chromatogram (EIC) peaks of the detected peptide at the exact 3+ and 4+ valance forms (red circles). (I) Enlarged peaks from- E, Sample-4 with (J) extracted ion chromatogram (EIC) peaks of the detected peptide at the exact 3+ and 4+ valance forms (red circles).

[2] = Half-life of peptide 9S1R in serum; assay type: in vitro ADME; conditions: bovine, fetal bovine serum; peptide spiked into FBS, 37 °C, exposure 30 s, 5, 30, 60, 90 min; 75% ice cold acetonitrile precipitation; HPLC-QTOF MS, log2 EIC peak area vs time; read-out: half-life (t1/2) in fetal bovine serum
Experimental: The half-life of peptide 9S1R was determined by spiking the peptide into fetal bovine serum (FBS) for exposure times of 30 s and 5, 30, 60 or 90 min. During the exposure, FBS containing the spike peptides were incubated at 37 °C. The exposure was halted, and the peptide was extracted from FBS using protein precipitation. Protein precipitation was accomplished using 75% ice cold acetonitrile, followed by incubation at − 20 °C for one hour, and centrifugation at 9000 rpm for 10 min at […]. The supernatant was removed and saved for analysis. Peptide samples were analyzed by High pressure liquid chromatography (HPLC) mass spectrometry (MS) using an ultra-high-resolution Quadrupole Time of Flight (QTOF) instrument (Bruker maxis, Bruker Corporation, Billerica, MA, USA). HPLC mobile phase consisted of 18 MΩ H2O and HPLC grade formic acid and acetonitrile (> 99% purity, Fisher Scientific, Pittsburgh, PA, USA). The electrospray ionization (ESI) source was operated under the following conditions: positive ion mode; nebulizer pressure: 1.2 Bar; flow rate of drying gas (N2): 8 L/min; drying gas temperature: 200 °C; voltage between HV capillary and HV end-plate offset: 3000 V to – 500 V; mass range was set from 250 to 2900 m/z; and the quadrupole ion energy was 4.0 eV. […]

[3] = tested on: 4T1.2-Luc TNBC tumors in Balb/c mice; experiment: 4T1.2-Luc orthotopic TNBC mouse model, unilateral tumors, eight IP doses; assay type: in vivo; conditions: trehalose only group, H&E scoring
From the text: (§1) The model was created by orthotopically injecting 4T1.2-Luc cells in the 4th mammary fat pad of Balb/c mice, with 1 × 10^5 cells per mouse. The cell line was developed by Dr. Cheryl L. Jorcyk and expresses the luciferase gene which serves as a luminescent indicator of gene expression or tumorigenesis, making the tumor cell traceable in vivo. Treatment started after the formation of palpable tumors and was detected by in vivo BLI (IVIS, Perkin Elmer) followed by randomization of the animals per group. For evaluating the effect of the peptides on this model, we carried out two separate studies. […]
Mice were anesthetized by isoflurane followed by measurement of the tumor length and width using a manual Vernier caliper. This was performed before every drug administration and the tumor volume was calculated using the formula (length × width^2)/2. Body weights were also measured before every dose of the drug.
Whole-body bioluminescence imaging (BLI) using the In Vivo Imaging System (IVIS® Spectrum, Perkin Elmer) was performed to detect in vivo tumor burden and metastasis, as evaluated by the bioluminescence signal from the 4T1.2-Luc cells. […] The images were analyzed by Perkin Elmer software and Aura Version 4.0.7 (Spectral instruments Imaging). […]

[4] = tested on: 4T1.2-Luc TNBC tumors in Balb/c mice; experiment: Pilot study, 4T1.2-Luc bilateral mammary tumor model, six IP doses; assay type: in vivo, mouse; conditions: study-1, trehalose only group
From the text: as §1, with “studies. The first pilot study involved a set of 4 mice per group with bilateral mammary tumors, which received six IP administration of PBS, 9S1R-NulloPT drug at 50 mg/kg, 100 mg/kg body weight or Trehalose, over a period of 2 weeks. The present study includes a set of 7–9 mice per group with unilateral tumors including the same groups as in the pilot study, but received a total of eight injections per mouse over a period of 2 weeks.” for “studies.”
Supplementary Fig 2: Detailed results from pilot first study with six IP administration of PBS (control), Trehalose, 50mg/kg NulloPT and 100 mg/kg NulloPT in TNBC mice. […] Treatment started after the formation of palpable tumors and was detected by an in vivo BLI system (IVIS, Perkin Elmer) followed by randomization of the animals per group. […]

| Molecule | uptake of native untagged peptide inside cells by mass spectrometry [1] | half-life [2] | immune cell infiltration or margin inflammation on the tumors [3] | tumor size with trehalose alone [4] |
| --- | --- | --- | --- | --- |
| RRRRRWCMNW [9S1R] | detected inside cells in two forms; also recorded: available inside the cells | 8.7 min |  |  |
| OC[C@H]1O[C@H](O[C@H]2O[C@H](CO)[C@@H](O)[C@H](O)[C@H]2O)[C@H](O)[C@@H](O)[C@@H]1O [Trehalose] |  |  | did not show any effect | higher than control tumor size |
